Source: patent US10538442B2, “Water treatment” (priority 2015, dated 2020)

Columns and labels:
Desulfovibrio vulgaris = test: Log 10 reduction of viable count of anaerobic bacterium in dosed suspension (serial dilution into API RP 38 media vials); type: cell-based; details: for Log 10 Reduction Anaerobes: TDS 30,000 mg l^-1, 5 = complete kill; for effectiveness against anaerobes (in words): short contact times, summary of Table 1, combination compared with chlorine dioxide alone
Method: (§1) A suspension of Desulfovibrio vulgaris plus Enterobacter aerogenes bacteria containing from 1×10^5 to 1×10^6 cells/mL was prepared in sterile pH 8 phosphate buffer containing sodium chloride to give the desired total dissolved solids (TDS) concentration. Aliquots of this suspension were dosed with the indicated concentrations of the compounds (a) and (b) with the concentrations being measured as ppm by weight of the stated composition in the dosed suspension. The mixtures were allowed to stand at room temperature. At the designated contact times, each mixture was sampled to determine the total number of viable cells of both Desulfovibrio vulgaris and Enterobacter aerogenes by serial 10-fold dilution into API RP 38 media vials and anaerobic acid producing media vials, respectively. The vials were incubated at 37° C. for 72 hours. Results were recorded as log10 reduction in the viable count versus the control.
(§2) Aqueous media inoculated with anaerobe and aerobe culture and having a TDS of 30,000 mg l^−1 was treated with treatment agents comprising: (i) tri n-butyl n-tetradecyl phosphonium chloride (TTPC); (ii) chlorine dioxide; or (ill) a combination of TTPC and chlorine dioxide.
(§3) TTPC was used in the form of Bellacide 350, an aqueous composition of TTPC and water consisting of water and 50% by weight of TTPC available from BWA Water Additives.
(§4) Chlorine dioxide was used in the form of CDG Solution 3000 a 0.3% aqueous solution of chlorine dioxide available from CDG Environmental, LLC.
(§5) The efficacy of the treatment agents was evaluated by measuring the Log 10 Reduction of the anaerobic bacterium Desulfovibrio vulgaris and the facultative anaerobic bacterium Enterobacter aerogenes after contact times of 10 minutes, 30 minutes and 60 minutes as detailed in Table 1. For TTPC the stated ppm value relates to the amount of TTPC added (active). For the chlorine dioxide the stated ppm relates to the amount of free residual of chlorine dioxide.

Enterobacter aerogenes = test: Log 10 reduction of viable count of facultative anaerobic bacterium in dosed suspension (serial dilution into anaerobic acid producing media vials); type: cell-based; details: for Log 10 Reduction Facultative Anaerobes: TDS 30,000 mg l^-1, 6 = complete kill; for effectiveness against aerobes (in words): short contact times, summary of Table 1, combination compared with chlorine dioxide alone
Method: as §1, §2, §3, §4, §5

[1] = contact time 10 minutes, TTPC 3.125 ppm active
[2] = contact time 10 minutes, TTPC 6.25 ppm active
[3] = contact time 30 minutes, TTPC 3.125 ppm active
[4] = contact time 30 minutes, TTPC 6.25 ppm active
[5] = contact time 60 minutes, TTPC 3.125 ppm active
[6] = contact time 60 minutes, TTPC 6.25 ppm active
[7] = contact time 10 minutes, chlorine dioxide 0.25 ppm free residual
[8] = contact time 10 minutes, chlorine dioxide 0.5 ppm free residual
[9] = contact time 30 minutes, chlorine dioxide 0.25 ppm free residual
[10] = contact time 30 minutes, chlorine dioxide 0.5 ppm free residual
[11] = contact time 60 minutes, chlorine dioxide 0.25 ppm free residual
[12] = contact time 60 minutes, chlorine dioxide 0.5 ppm free residual

Compound: CCCCCCCCCCCCCC[P+](CCCC)(CCCC)CCCC.[Cl-] [TTPC, tri n-butyl n-tetradecyl phosphonium chloride]
- Log 10 Reduction Anaerobes (Desulfovibrio vulgaris; [1]): 0
- Log 10 Reduction Anaerobes (Desulfovibrio vulgaris; [2]): 0
- Log 10 Reduction Anaerobes (Desulfovibrio vulgaris; [3]): 0
- Log 10 Reduction Anaerobes (Desulfovibrio vulgaris; [4]): 2
- Log 10 Reduction Anaerobes (Desulfovibrio vulgaris; [5]): 0
- Log 10 Reduction Anaerobes (Desulfovibrio vulgaris; [6]): 5
- effectiveness against anaerobes (in words) (Desulfovibrio vulgaris): ineffective
- Log 10 Reduction Facultative Anaerobes (Enterobacter aerogenes; [1]): 0
- Log 10 Reduction Facultative Anaerobes (Enterobacter aerogenes; [2]): 0
- Log 10 Reduction Facultative Anaerobes (Enterobacter aerogenes; [3]): 0
- Log 10 Reduction Facultative Anaerobes (Enterobacter aerogenes; [4]): 1
- Log 10 Reduction Facultative Anaerobes (Enterobacter aerogenes; [5]): 0
- Log 10 Reduction Facultative Anaerobes (Enterobacter aerogenes; [6]): 1
- effectiveness against aerobes (in words) (Enterobacter aerogenes): ineffective

Compound: [O][Cl+][O-] [chlorine dioxide]
- Log 10 Reduction Anaerobes (Desulfovibrio vulgaris; [7]): 3
- Log 10 Reduction Anaerobes (Desulfovibrio vulgaris; [8]): 4
- Log 10 Reduction Anaerobes (Desulfovibrio vulgaris; [9]): 3
- Log 10 Reduction Anaerobes (Desulfovibrio vulgaris; [10]): 5
- Log 10 Reduction Anaerobes (Desulfovibrio vulgaris; [11]): 3
- Log 10 Reduction Anaerobes (Desulfovibrio vulgaris; [12]): 5
- effectiveness against anaerobes (in words) (Desulfovibrio vulgaris): effective
- Log 10 Reduction Facultative Anaerobes (Enterobacter aerogenes; [7]): 3
- Log 10 Reduction Facultative Anaerobes (Enterobacter aerogenes; [8]): 6
- Log 10 Reduction Facultative Anaerobes (Enterobacter aerogenes; [9]): 3
- Log 10 Reduction Facultative Anaerobes (Enterobacter aerogenes; [10]): 6
- Log 10 Reduction Facultative Anaerobes (Enterobacter aerogenes; [11]): 3
- Log 10 Reduction Facultative Anaerobes (Enterobacter aerogenes; [12]): 6
- effectiveness against aerobes (in words) (Enterobacter aerogenes): effective
